Results from PubChem BioAssay AID1259411 (Chemical Carcinogenesis Research Information System (CCRIS), 2018).
The source made the active and inactive calls. No rule for the calls is given here.

Tested on: rodent carcinogenicity bioassays, tumor incidence
Assay: CCRIS carcinogenicity studies
In short: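 Archive of carcinogenicity, mutagenicity, tumor promotion and tumor inhibition results drawn from journals, NCI reports and other sources, expert-reviewed; covers 1985-2011 and is no longer updated.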

Compound: COc1cc(-c2ccc(N)c(OC)c2)ccc1N
- carcinogen call (Species: HAMSTER, Route: ORAL, Tumor Site: Type of Lesion: FORESTOMACH): active; positive
- carcinogen call (Species: MOUSE, Strain/Sex: BALB/FEMALE, Route: ORAL, Dose: 0, 20, 40, 80, 160, 315, 630 PPM IN DRINKING WATER (STUDY DURATION: 112 WK), Dose: 0, 20, 40, 80, 160, 315, 630 PPM IN DRINKING WATER (STUDY DURATION: 112 WK)): inactive; negative
- carcinogen call (Species: MOUSE, Strain/Sex: BALB/MALE, Route: ORAL, Dose: 0, 20, 40, 80, 160, 315, 630 PPM IN DRINKING WATER (STUDY DURATION: 112 WK), Dose: 0, 20, 40, 80, 160, 315, 630 PPM IN DRINKING WATER (STUDY DURATION: 112 WK)): inactive; negative
- carcinogen call (Species: RAT, Route: ORAL, Tumor Site: Type of Lesion: EAR (ZYMBAL GLAND), URINARY BLADDER, INTESTINES, INTEGUMENTARY SYSTEM (SKIN), Tumor Site: Type of Lesion: EAR (ZYMBAL GLAND), URINARY BLADDER, INTESTINES, INTEGUMENTARY SYSTEM (SKIN)): active; positive
- carcinogen call (Species: RAT, Strain/Sex: F344/FEMALE, Route: ORAL, Dose: 0, 80, 170, 330 PPM IN DRINKING WATER FOR 21 MO ( STUDY DURATION: 93 WK), Dose: 0, 80, 170, 330 PPM IN DRINKING WATER FOR 21 MO ( STUDY DURATION: 93 WK), Tumor Site: Type of Lesion: CLITORAL GLAND: ADENOMA OR CARCINOMA, LARGE INTESTINE: ADENOMATOUS POLYP OR ADENOCARCINOMA, LIVER: NEOPLASTIC NODULE OR, Tumor Site: Type of Lesion: CLITORAL GLAND: ADENOMA OR CARCINOMA, LARGE INTESTINE: ADENOMATOUS POLYP OR ADENOCARCINOMA, LIVER: NEOPLASTIC NODULE OR): active; positive
- carcinogen call (Species: RAT, Strain/Sex: F344/FEMALE, Route: ORAL, Dose: 0, 80, 170, 330 PPM IN DRINKING WATER FOR 21 MO (STUDY DURATION: 21 MO), Dose: 0, 80, 170, 330 PPM IN DRINKING WATER FOR 21 MO (STUDY DURATION: 21 MO), Tumor Site: Type of Lesion: ZYMBAL GLAND: ADENOMA, CARCINOMA, CLITORAL GLAND: ADENOMA, CARCINOMA, LARGE INTESTINE: ADENOMATOUS POLYP OR ADENOCARCINO, Tumor Site: Type of Lesion: ZYMBAL GLAND: ADENOMA, CARCINOMA, CLITORAL GLAND: ADENOMA, CARCINOMA, LARGE INTESTINE: ADENOMATOUS POLYP OR ADENOCARCINO): active; positive
- carcinogen call (Species: RAT, Strain/Sex: F344/MALE, Route: ORAL, Dose: 0, 80, 170, 330 PPM IN DRINKING WATER FOR 21 MO (STUDY DURATION: 21 MO), Dose: 0, 80, 170, 330 PPM IN DRINKING WATER FOR 21 MO (STUDY DURATION: 21 MO), Tumor Site: Type of Lesion: ZYMBAL GLAND: ADENOMA, CARCINOMA, PREPUTIAL GLAND: CARCINOMA, SKIN: BASAL CELL ADENOMA, BASAL CELL CARCINOMA, SQUAMOUS C, Tumor Site: Type of Lesion: ZYMBAL GLAND: ADENOMA, CARCINOMA, PREPUTIAL GLAND: CARCINOMA, SKIN: BASAL CELL ADENOMA, BASAL CELL CARCINOMA, SQUAMOUS C): active; positive
- carcinogen call (Species: RAT, Strain/Sex: F344/MALE, Route: ORAL, Dose: 0, 80, 170, 330 PPM IN DRINKING WATER FOR 21 MO (STUDY DURATION: 93 WK), Dose: 0, 80, 170, 330 PPM IN DRINKING WATER FOR 21 MO (STUDY DURATION: 93 WK), Tumor Site: Type of Lesion: BRAIN: MALIGNANT ASTROCYTOMA, PREPUTIAL GLAND: CARCINOMA, ADENOMA OR CARCINOMA, LARGE INTESTINE: ADENOMATOUS POLYP OR AD, Tumor Site: Type of Lesion: BRAIN: MALIGNANT ASTROCYTOMA, PREPUTIAL GLAND: CARCINOMA, ADENOMA OR CARCINOMA, LARGE INTESTINE: ADENOMATOUS POLYP OR AD): active; positive

Compound: CC[C@H]1OC(=O)[C@H](C)[C@@H](O[C@H]2C[C@@](C)(OC)[C@@H](O)[C@H](C)O2)[C@H](C)[C@@H](O[C@@H]2O[C@H](C)C[C@H](N(C)C)[C@H]2O)[C@](C)(O)C[C@@H](C)C(=O)[C@H](C)[C@@H](O)[C@]1(C)O
- carcinogen call (Species: MOUSE, Strain/Sex: B6C3F1/FEMALE, Route: ORAL, Dose: 0, 2500, 5000 PPM IN FEED FOR 103 WK (STUDY DURATION: 104 WK), Dose: 0, 2500, 5000 PPM IN FEED FOR 103 WK (STUDY DURATION: 104 WK)): inactive; negative
- carcinogen call (Species: MOUSE, Strain/Sex: B6C3F1/MALE, Route: ORAL, Dose: 0, 2500, 5000 PPM IN FEED FOR 103 WK (STUDY DURATION: 104 WK), Dose: 0, 2500, 5000 PPM IN FEED FOR 103 WK (STUDY DURATION: 104 WK)): inactive; negative
- carcinogen call (Species: RAT, Strain/Sex: F344/FEMALE, Route: ORAL, Dose: 0, 5000, 10000 PPM IN FEED FOR 103 WK (STUDY DURATION: 104 WK), Dose: 0, 5000, 10000 PPM IN FEED FOR 103 WK (STUDY DURATION: 104 WK)): inactive; negative
- carcinogen call (Species: RAT, Strain/Sex: F344/MALE, Route: ORAL, Dose: 0, 5000, 10000 PPM IN FEED FOR 103 WK (STUDY DURATION: 104 WK), Dose: 0, 5000, 10000 PPM IN FEED FOR 103 WK (STUDY DURATION: 104 WK)): inactive; negative

Compound: CC1=CC(C)(C)Nc2ccccc21
- carcinogen call (Species: MOUSE, Strain/Sex: B6C3F1/FEMALE, Route: DERMAL, Dose: 0, 3.6, 6, 10 MG/KG BW IN ACETONE 5 D/WK FOR 103 WK (STUDY DURATION: 103 WK), Dose: 0, 3.6, 6, 10 MG/KG BW IN ACETONE 5 D/WK FOR 103 WK (STUDY DURATION: 103 WK)): inactive; negative
- carcinogen call (Species: MOUSE, Strain/Sex: B6C3F1/MALE, Route: DERMAL, Dose: 0, 3.6, 6, 10 MG/KG BW IN ACETONE 5 D/WK FOR 103 WK (STUDY DURATION: 103 WK), Dose: 0, 3.6, 6, 10 MG/KG BW IN ACETONE 5 D/WK FOR 103 WK (STUDY DURATION: 103 WK)): inactive; negative
- carcinogen call (Species: RAT, Strain/Sex: F344/FEMALE, Route: DERMAL, Dose: 0, 36, 60, 100 MG/KG BW IN ACETONE 5 D/WK FOR 104 WK (STUDY DURATION: 106 WK), Dose: 0, 36, 60, 100 MG/KG BW IN ACETONE 5 D/WK FOR 104 WK (STUDY DURATION: 106 WK)): inactive; negative
- carcinogen call (Species: RAT, Strain/Sex: F344/MALE, Route: DERMAL, Dose: 0, 36, 60, 100 MG/KG BW IN ACETONE 5 D/WK FOR 103 WK (STUDY DURATION: 105 WK), Dose: 0, 36, 60, 100 MG/KG BW IN ACETONE 5 D/WK FOR 103 WK (STUDY DURATION: 105 WK), Tumor Site: Type of Lesion: KIDNEY(RENAL TUBULE): ADENOMA OR CARCINOMA): active; positive

Compound: Brc1c2ccccc2cc2c1ccc1ccccc12
- carcinogen call (Species: MOUSE, Strain/Sex: B6C3F1/MALE, Route: INTRAPERITONEAL, Dose: 0, 1600 NMOL (TOTAL DOSE) ADMINISTERED IN DOSES OF 1/7 WITHIN 24 HR OF BIRTH, 2/7 AT 8 DAYS OF AGE AND 4/7 AT 15 DAYS OF, Tumor Site: Type of Lesion: LIVER: ADENOMA, CARCINOMA): active; positive

Compound: CCC(Cl)C(Cl)C(Cl)CC(Cl)C(Cl)C(C)Cl (configuration not stated)
- carcinogen call (Species: MOUSE, Strain/Sex: B6C3F1/FEMALE, Route: GAVAGE, Dose: 0, 125, 250 MG/KG IN CORN OIL 5 D/WK FOR 103 WK, Dose: 0, 125, 250 MG/KG IN CORN OIL 5 D/WK FOR 103 WK, Tumor Site: Type of Lesion: LIVER: HEPATOCELLULAR ADENOMA, HEPATOCELLULAR ADENOMA OR CARCINOMA, THYROID GLAND: FOLLICULAR CELL ADENOMA, FOLLICULAR C): active; positive
- carcinogen call (Species: MOUSE, Strain/Sex: B6C3F1/MALE, Route: GAVAGE, Dose: 0, 125, 250 MG/KG IN CORN OIL 5 D/WK FOR 103 WK, Dose: 0, 125, 250 MG/KG IN CORN OIL 5 D/WK FOR 103 WK, Tumor Site: Type of Lesion: LIVER: HEPATOCELLULAR ADENOMA, HEPATOCELLULAR ADENOMA OR CARCINOMA): active; positive
- carcinogen call (Species: RAT, Strain/Sex: F344/FEMALE, Route: GAVAGE, Dose: 0, 312, 625 MG/KG IN CORN OIL 5 D/WK FOR 104 WK, Dose: 0, 312, 625 MG/KG IN CORN OIL 5 D/WK FOR 104 WK, Tumor Site: Type of Lesion: LIVER: NEOPLASTIC NODULE, NEOPLASTIC NODULE OR HEPATOCELLULAR CARCINOMA, THYROID GLAND: FOLLICULAR CELL ADENOMA OR CARCI): active; positive
- carcinogen call (Species: RAT, Strain/Sex: F344/MALE, Route: GAVAGE, Dose: 0, 312, 625 MG/KG IN CORN OIL 5 D/WK FOR 104 WK, Dose: 0, 312, 625 MG/KG IN CORN OIL 5 D/WK FOR 104 WK, Tumor Site: Type of Lesion: LIVER: NEOPLASTIC NODULE, NEOPLASTIC NODULE OR HEPATOCELLULAR CARCINOMA, KIDNEY: TUBULAR CELL ADENOMA OR ADENOCARCINOMA): active; positive

Compound: O=Nc1ccc2ccccc2c1
- carcinogen call (Species: MOUSE, Strain/Sex: SWISS/MALE, Route: SUBCUTANEOUS, Dose: 100 UG IN GELATIN ON FIRST, THIRD AND FIFTH D OF LIFE, Tumor Site: Type of Lesion: LIVER: HEPATOMA): active; positive
